Assay results taken from paper PMC3216550 (Scientific Reports, 2011).

Columns and labels:
paAzoR1 = target: T1, paAzoR1 (Pseudomonas aeruginosa, UniProt Q9I5F3); assay: X-ray crystal structure, […] Å; format: binding; conditions: complex with nitrofurazone; FMN in active site
T1 sequence (Q9I5F3 1-212): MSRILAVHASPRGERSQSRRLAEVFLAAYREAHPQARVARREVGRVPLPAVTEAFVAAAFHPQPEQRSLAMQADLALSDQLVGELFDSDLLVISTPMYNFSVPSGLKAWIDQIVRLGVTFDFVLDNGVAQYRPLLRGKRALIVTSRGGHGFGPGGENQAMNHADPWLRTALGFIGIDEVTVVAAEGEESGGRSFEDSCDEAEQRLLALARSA

purified protein = substrate: NC(=O)N/N=C/c1ccc([N+](=O)[O-])o1; assay: purified protein; conditions: 750 μM NADPH, 20 mM Tris-HCl pH 8.0, 100 mM NaCl

With Cc1cc2nc3c(=O)[nH]c(=O)nc-3n(C[C@H](O)[C@H](O)[C@H](O)COP(=O)(O)O)c2cc1C [FMN] the “X-ray crystal structure, 2.08 Å” value (paAzoR1) was “The FMN is shown with yellow carbon atoms”.

B1: paAzoR1 (Pseudomonas aeruginosa PAO1) (protein)
chain: T1 sequence (Q9I5F3 1-212)
In the case of B1, the Km (purified protein) is reported as 15.7 ± 1.6 µM.
